The results in this text go back to ChEMBL document CHEMBL1201862, “PubChem BioAssay data set” (2004).

Among the test systems are SK-OV-3; SN12C; A549; CAKI-1; MDA-MB-231; CCRF-CEM; NCI/ADR-RES; UACC-257; SNB-75; RPMI-8226; SR; DU-145; MDA-N; SK-MEL-28; OVCAR-5; UACC-62; M14; SW-620; NCI-H226; HCT-15.
Holding throughout (assay): DTP human tumour cell line panel, 48 h

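Following 48 hours of exposure in 96-well plates, responses at five concentrations were used to interpolate endpoints linearly. GI50 = concentration required for 50% inhibition of growth.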 Activity calls are given as the source filed them. Cut-off read from the data, not from the text of the source: active = GI50 up to about 1.1 µM and inactive = higher. A value given as a limit tells only on which side of the number the result lay.

What is called GI50 is the concentration that inhibits growth by half. For the molecule `COC1OC(CO)C(O)C(OC(=O)c2cc(O)c(O)c(O)c2)C1OC(=O)c1cc(O)c(O)c(O)c1` (stereo not given), the GI50 in the assay with SK-OV-3 is > 100 µM (inactive); in the assay with SN12C it was 61.9 µM (inactive); in the assay on A549 it was > 100 µM (inactive); with CAKI-1 it was 48.3 µM (inactive); with MDA-MB-231 it was > 100 µM (inactive); in the assay with CCRF-CEM, 42.7 µM (inactive). Also, the GI50 was 60.4 µM (inactive) in the assay with NCI/ADR-RES; 95.3 µM (inactive) with UACC-257; > 100 µM (inactive) in the assay on SNB-75; > 100 µM (inactive) in the assay on RPMI-8226; 53.7 µM (inactive) in the assay with SR; > 100 µM (inactive) in the assay on DU-145. The GI50 in the assay with MDA-N is 25.1 µM (inactive); with SK-MEL-28, > 100 µM (inactive); in the assay with OVCAR-5, > 100 µM (inactive); with UACC-62 it was > 10 µM (inactive); in the assay with M14, 45.4 µM (inactive); in the assay on SW-620 it was 41.6 µM (inactive). Moreover, the GI50 with NCI-H226 is > 100 µM (inactive); in the assay on HCT-15, 66.2 µM.
Consider `Cc1cc(C#N)c(Nc2ccc(F)cc2[N+](=O)[O-])s1`, for which the GI50 was > 100 µM (inactive) in the assay with SK-OV-3; > 100 µM (inactive) in the assay on SN12C; > 100 µM (inactive) in the assay on A549; 84.9 µM (inactive) in the assay on CAKI-1; 21.5 µM (inactive) with MDA-MB-231; > 100 µM (inactive) in the assay with CCRF-CEM. Further, the GI50 was > 100 µM (inactive) in the assay on NCI/ADR-RES; > 100 µM (inactive) in the assay on UACC-257; 21.3 µM (inactive) with SNB-75; > 100 µM (inactive) in the assay with RPMI-8226; > 100 µM (inactive) in the assay on SR; > 100 µM (inactive) with DU-145. The GI50 is > 100 µM (inactive) in the assay on MDA-N; > 100 µM (inactive) in the assay on SK-MEL-28; > 100 µM (inactive) in the assay on OVCAR-5; > 100 µM (inactive) in the assay with UACC-62; 71.1 µM (inactive) with M14; > 100 µM (inactive) in the assay on SW-620. In addition, the values for the GI50 in the assay on NCI-H226 and in the assay with HCT-15 were > 100 µM (inactive) and greater than 100 µM, respectively.
Regarding `Cc1ccc2nnc(NS(=O)(=O)c3cc(C)c(Cl)cc3S)n2n1`, the GI50 in the assay with SK-OV-3, with SN12C, in the assay with A549, in the assay with CAKI-1, in the assay on MDA-MB-231 and in the assay on CCRF-CEM was > 100 µM (inactive) each time. For the same molecule, the GI50 with NCI/ADR-RES, in the assay on UACC-257, in the assay on SNB-75, in the assay on RPMI-8226, in the assay on SR and with DU-145 was > 100 µM (inactive) in each case. Besides, the GI50 in the assay with MDA-N, with SK-MEL-28, in the assay with OVCAR-5, with UACC-62, in the assay with M14 and in the assay on SW-620 was > 100 µM (inactive) in each case. For the same molecule, the GI50 in the assay with NCI-H226 was > 100 µM (inactive); with HCT-15 it was greater than 100 µM.
Consider `COC1/C=C/C(C)C(C(C)C(OC)C(C)CCC(=O)C(C)C(CCC(=O)O)OC)OC(=O)/C=C/C=C(\C)CC(OC)CC2=CC(=O)O[C@@H](C(C)C(OC)CC(OC)/C=C/C(C)C(OC)C1)[C@H]2O` (stereo not given in full), for which the GI50 in the assay with SK-OV-3 was 1.18 µM (inactive); with SN12C, 0.733 µM (active); in the assay on A549, 0.332 µM (active); with CAKI-1 it was 0.269 µM (active); in the assay on MDA-MB-231, 0.483 µM (active); with CCRF-CEM, 0.181 µM (active). Moreover, the GI50 in the assay with NCI/ADR-RES is > 5 µM (inactive); in the assay on UACC-257, 1.24 µM (inactive); in the assay with SNB-75, 0.16 µM (active); in the assay on RPMI-8226, 0.242 µM (active); with SR, 0.637 µM (active); in the assay with DU-145 it was 1.71 µM (inactive). Further, the concentration for 50% growth inhibition (GI50) in the assay on MDA-N was 0.6 µM (active); in the assay on SK-MEL-28 it was 0.792 µM (active); in the assay with OVCAR-5, > 5 µM (inactive); with UACC-62, 0.787 µM (active); in the assay with M14, 0.63 µM (active); in the assay on SW-620 it was 0.607 µM (active). The GI50 in the assay on NCI-H226 is 0.695 µM (active); with HCT-15 it was 0.74 µM.
With `CN(C)CC1CCCCCCCCCC(CN(C)C)C1=O` (stereo not given), the GI50 is > 28.8 µM (inactive) in the assay with SK-OV-3; > 25.4 µM (inactive) with SN12C; > 34.8 µM (inactive) in the assay on A549; > 35.4 µM (inactive) in the assay on CAKI-1; 17.3 µM (inactive) in the assay with MDA-MB-231; 12 µM (inactive) in the assay with CCRF-CEM. For the same molecule, the GI50 in the assay on NCI/ADR-RES is 6.43 µM (inactive); in the assay with UACC-257 it was 23.1 µM (inactive); in the assay on SNB-75, 17.1 µM (inactive); with RPMI-8226 it was > 22 µM (inactive); in the assay with SR it was 17.6 µM (inactive); in the assay on DU-145, 12.9 µM (inactive). In addition, the GI50 is 5.62 µM (inactive) in the assay on MDA-N; 32.1 µM (inactive) with SK-MEL-28; > 49.1 µM (inactive) with OVCAR-5; 22 µM (inactive) in the assay with UACC-62; 16.9 µM (inactive) in the assay on M14; > 21.2 µM (inactive) with SW-620. Also, the GI50 in the assay on NCI-H226 is > 43 µM (inactive); with HCT-15, greater than 22.3 µM.
As for `Cc1cn(C2CC(n3cc(Cn4cc(I)c(=O)[nH]c4=O)nn3)C(CO)O2)c(=O)[nH]c1=O` (stereo not given), the GI50 in the assay on SK-OV-3, in the assay on SN12C, in the assay on A549, in the assay with CAKI-1, with MDA-MB-231 and in the assay with CCRF-CEM was > 100 µM (inactive) in each case. Also, the GI50 in the assay on NCI/ADR-RES is > 100 µM (inactive); in the assay on UACC-257, > 100 µM (inactive); with SNB-75, > 100 µM (inactive); with RPMI-8226, > 100 µM (inactive); in the assay with SR, < 0.01 µM (active); with DU-145, > 100 µM (inactive). For the same molecule, the GI50 with MDA-N, in the assay with SK-MEL-28, in the assay on OVCAR-5, in the assay on UACC-62, in the assay with M14 and in the assay on SW-620 was > 100 µM (inactive) throughout. Also, the GI50 with NCI-H226 is > 100 µM (inactive); with HCT-15, greater than 100 µM.
As to `Cc1cc2ncn(C3CCCO3)c2cc1C` (stereo not given), the GI50 in the assay on SK-OV-3, in the assay on SN12C, in the assay with A549, with CAKI-1, in the assay on MDA-MB-231 and in the assay with CCRF-CEM was > 100 µM (inactive) each time. The GI50 was > 100 µM (inactive) in the assay with NCI/ADR-RES; > 100 µM (inactive) in the assay with UACC-257; 71.6 µM (inactive) in the assay with SNB-75; > 100 µM (inactive) with RPMI-8226; > 100 µM (inactive) with SR; > 100 µM (inactive) in the assay on DU-145. Also, the GI50 in the assay on MDA-N, with SK-MEL-28, with OVCAR-5, in the assay with UACC-62, in the assay with M14 and in the assay with SW-620 was > 100 µM (inactive) each time. For the same molecule, the GI50 in the assay on NCI-H226 was > 100 µM (inactive); in the assay with HCT-15, greater than 100 µM.
Consider `C[C@]12CC[C@H](O)CC1=CC[C@@H]1[C@@H]2CC[C@]2(C)NC(=O)/C(=C\c3ccccc3)C[C@@H]12`, for which the GI50 with SK-OV-3 was 18.9 µM (inactive); with SN12C, 23 µM (inactive); with A549, 14.6 µM (inactive); in the assay with CAKI-1, 25.2 µM (inactive); in the assay with MDA-MB-231, 16 µM (inactive); in the assay on CCRF-CEM it was 17 µM (inactive). Further, the GI50 is 18.5 µM (inactive) with NCI/ADR-RES; 23.3 µM (inactive) in the assay with UACC-257; 19.6 µM (inactive) in the assay with SNB-75; 21.6 µM (inactive) in the assay with RPMI-8226; 28.7 µM (inactive) in the assay with SR; 16.4 µM (inactive) in the assay with DU-145. In addition, the GI50 is 24.3 µM (inactive) with MDA-N; 16.7 µM (inactive) in the assay with SK-MEL-28; 14.5 µM (inactive) with OVCAR-5; 18.3 µM (inactive) in the assay on UACC-62; 15.8 µM (inactive) in the assay on M14; 16.9 µM (inactive) with SW-620. Also, the GI50 with NCI-H226 is 14.9 µM (inactive); in the assay on HCT-15 it was 17.4 µM.
Turning to `CNc1ccc([N+](=O)[O-])cc1C(=O)N1CCC[C@H]1CO`, the GI50 with SK-OV-3, with SN12C, in the assay on A549, in the assay with CAKI-1, in the assay on MDA-MB-231 and in the assay on CCRF-CEM was > 100 µM (inactive) in each case. Besides, the GI50 with NCI/ADR-RES, with UACC-257, in the assay on SNB-75, with RPMI-8226, in the assay with SR and in the assay with DU-145 was > 100 µM (inactive) each time. The GI50 in the assay with MDA-N, in the assay on SK-MEL-28, with OVCAR-5, with UACC-62, in the assay on M14 and in the assay on SW-620 was > 100 µM (inactive) throughout. Further, the results for the GI50 in the assay with NCI-H226 and in the assay with HCT-15 were 19.5 µM (inactive) and greater than 100 µM, respectively.
In the case of `[O-]/[N+](=C\c1ccccc1OC(=S)S)c1ccc(Cl)cc1`, the GI50 in the assay on SK-OV-3 is > 100 µM (inactive); with SN12C, 24.8 µM (inactive); with A549, > 100 µM (inactive); in the assay on CAKI-1, 13.6 µM (inactive); in the assay with MDA-MB-231, 13.7 µM (inactive); in the assay on CCRF-CEM it was 2.42 µM (inactive). Moreover, the GI50 with NCI/ADR-RES was 18.5 µM (inactive); with UACC-257 it was 21.5 µM (inactive); in the assay on SNB-75 it was > 100 µM (inactive); in the assay on RPMI-8226 it was 5.7 µM (inactive); in the assay with SR, 21.8 µM (inactive); in the assay with DU-145, 42.9 µM (inactive). The GI50 in the assay with MDA-N was 18 µM (inactive); in the assay with SK-MEL-28 it was 3.57 µM (inactive); in the assay with OVCAR-5, 21.2 µM (inactive); in the assay on UACC-62, 11.9 µM (inactive); with M14, 24.2 µM (inactive); with SW-620, 11.2 µM (inactive). For the same molecule, the GI50 was 48.4 µM (inactive) with NCI-H226 and 15.7 µM with HCT-15.
